Measurements as given in patent publication US11884675B2, “Heterocyclic compounds as triggering receptor expressed on myeloid cells 2 agonists and methods of use” (AMGEN INC., priority 2020, dated 2024).

Each compound was assayed against hTREM2 (Homo sapiens, UniProt Q9NZC2) (assay: TREM2 agonist potency by Syk phosphorylation (AlphaLisa) in HEK293T-hTREM2 cells, used for Examples 306-429). Conditions: HEK293 Cells.
Type: cell-based
Design: expressed in transfected cells; host or cells: HEK293T (HEK293T-hTREM2 cells)
Procedure: In vitro Measurement of Triggering Receptor Expressed on Myeloid Cells 2 activity using cellular phosphorylation of Spleen Tyrosine Kinase (“Syk”) Assays used for Examples 306-429
Measurement of TREM2 agonist potency was done using a HEK cell line expressing human TREM2 and DAP12 (HEK293T-hTREM2 cells). Binding of small molecules to, and activation of, TREM2 increases the phosphorylation of Syk. The resultant levels of Syk phosphorylation were measured using a commercial AlphaLisa reagent kit. To perform the assay, HEK-hTREM2 cells were plated at 14,000 cells per well in a 384 well plate, in 25 μL, of complete growth media and incubated at 37° C., 5% CO2 for 20-24 hours. Prior to the assay, test compounds were diluted in the 384 well plates in assay buffer and allowed to equilibrate for 30 minutes. Growth media was removed from cell plates by inversion on blotting paper, and 25 μL of test compounds in assay buffer was added to cells. Cells were incubated for 45 minutes at room temperature. After 45 minutes, assay buffer was removed and 10 μL of lysis buffer was added. Plates were shaken for 20 minutes at 350 RPM at room temperature. After complete lysis, AlphaLisa reagents were added to the lysate, and fluourescence intensity was measured using a Perkin Elmer Envision plate reader. Intensities were used to generate a standard curve, and % activation was calculated. Curve fitting was performed using Prism v9 software, log(agonist) vs response-variable slope (four parameters), and EC50s were calculated from the curve fit.
The results presented in Table 20 have been generated with the in vitro assay described above for Examples 306-429. This assay may be used to test any of the compounds described herein to assess and characterize a compound's ability to act as an agonist of TREM2.

hTREM2, sequence (Q9NZC2 19-230): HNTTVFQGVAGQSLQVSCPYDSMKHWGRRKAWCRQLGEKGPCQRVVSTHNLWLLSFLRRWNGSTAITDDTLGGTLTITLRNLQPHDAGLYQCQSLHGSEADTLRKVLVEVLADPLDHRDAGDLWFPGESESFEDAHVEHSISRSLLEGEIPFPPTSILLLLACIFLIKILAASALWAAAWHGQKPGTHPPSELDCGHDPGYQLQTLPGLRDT
hTREM2, sequence (O43914 22-113 partner): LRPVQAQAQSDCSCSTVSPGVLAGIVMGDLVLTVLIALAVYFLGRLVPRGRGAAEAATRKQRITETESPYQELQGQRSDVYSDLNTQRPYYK

`Cc1cc([C@H]2C[C@@H](c3nc(-c4ccc(C(F)(F)F)nc4)c4nc(C)c(C)nc4n3)CCO2)ccn1` (racemic) [Example 309, 6,7-dimethyl-2-(2-(2-methylpyridin-4-yl)tetrahydro-2H-pyran-4-yl)-4-(6-(trifluoromethyl)pyridin-3-yl)pteridine] and `Cc1cc([C@@H]2C[C@H](c3cc4nc(C)c(C)nc4c(-c4ccc(F)cc4F)n3)CCO2)ccn1` [Example 316, 5-(2,4-difluorophenyl)-2,3-dimethyl-7-[(2S,4R)-2-(2-methyl-4-pyridyl)tetrahydropyran-4-yl]pyrido[3,4-b]pyrazine] fall in the same range of EC50: 50 to 500 nM for the first, 50 to 500 nM for the second.

`Cc1cc([C@H]2CN(c3cc4nc(C)cnc4c(-c4ccc(F)cc4F)n3)CCO2)ccn1` [Example 334, (S)-4-(5-(2,4-difluorophenyl)-2-methylpyrido[3,4-b]pyrazin-7-yl)-2-(2-methylpyridin-4-yl)morpholine] and `Cc1cnc2c(-c3ccc(F)cc3F)nc(N3C[C@H](C)O[C@@H](c4cnn(C5CC5)c4)C3)cc2n1` (racemic) [Example 361, 2-(1-cyclopropyl-1H-pyrazol-4-yl)-4-(5-(2,4-difluorophenyl)-2-methylpyrido[3,4-b]pyrazin-7-yl)-6-methylmorpholine] cannot be ordered by EC50: at most 50 nM for the first, 50 to 500 nM for the second.

`Cc1cc(C2CC(c3cc4nc(C)c(C)cc4c(-c4ccc(Cl)cc4F)n3)CCO2)ccn1` (stereo not drawn) [Example 327, 5-(4-chloro-2-fluorophenyl)-2,3-dimethyl-7-(2-(2-methylpyridin-4-yl)tetrahydro-2H-pyran-4-yl)-1,6-naphthyridine] and `Cc1cc([C@H]2C[C@@H](c3cc4nc(C)c(C)cc4c(-c4ccc(Cl)cc4F)n3)CCO2)ccn1` (racemic) [Example 401, 5-(4-chloro-2-fluoro-phenyl)-2,3-dimethyl-7-[2-(2-methyl-4-pyridyl)tetrahydropyran-4-yl]-1,6-naphthyridine] cannot be ordered by EC50: at most 50 nM for the first, at most 50 nM for the second.

`COc1cc([C@H]2CN(c3nc(-c4ccc(Cl)cc4F)c4nc(C)c(C)nc4n3)CCO2)ccn1` [Example 335, (S)-4-(4-(4-chloro-2-fluorophenyl)-6,7-dimethylpteridin-2-yl)-2-(2-methoxypyridin-4-yl)morpholine] and `Cc1nc2nc(N3C[C@@H](c4cnn(C5CC5)c4)O[C@@H](C)C3)nc(-c3ccc(F)cc3F)c2nc1C` [Example 426, (2R,6S)-2-(1-cyclopropyl-1H-pyrazol-4-yl)-4-(4-(2,4-difluorophenyl)-6,7-dimethylpteridin-2-yl)-6-methylmorpholine] cannot be ordered by EC50: at most 50 nM for the first, at most 50 nM for the second.

Compared with `Cc1cnc2c(-c3ccc(F)cc3F)nc(N3C[C@@H](C)O[C@@H](c4cnn(C5CC5)c4)C3)nc2n1` [Example 420, (2S,6R)-2-(1-cyclopropyl-1H-pyrazol-4-yl)-4-(4-(2,4-difluorophenyl)-7-methylpteridin-2-yl)-6-methylmorpholine], `Cc1cnc2c(-c3ccc(Cl)cc3F)nc([C@@H]3CCO[C@@H](c4cnn(C5CC5)c4)C3)nc2n1` [Example 350, 4-(4-chloro-2-fluorophenyl)-2-((2R,4R)-2-(1-cyclopropyl-1H-pyrazol-4-yl)tetrahydro-2H-pyran-4-yl)-7-methylpteridine] is higher in EC50: at most 50 nM for the first, 500 to 3000 nM for the second. The first is the more potent here.

First: Cc1nc2nc(N3C[C@@H](C)O[C@H](c4cnn(C5CC5)c4)C3)nc(C34CC(C(F)(F)F)(C3)C4)c2nc1C [Example 409, (2R,6R)-2-(1-cyclopropyl-1H-pyrazol-4-yl)-4-(6,7-dimethyl-4-(3-(trifluoromethyl)bicyclo[1.1.1]pentan-1-yl)pteridin-2-yl)-6-methylmorpholine]
Second: Cc1ccc2c(C(C)C)nc([C@H]3C[C@@H](C)O[C@@H](c4cnn(C5CC5)c4)C3)nc2n1 [Example 429, 2-((2R,4S,6R)-2-(1-cyclopropyl-1H-pyrazol-4-yl)-6-methyltetrahydro-2H-pyran-4-yl)-4-isopropyl-7-methylpyrido[2,3-d]pyrimidine]
The EC50 of the first is lower: 50 to 500 nM for the first, 500 to 3000 nM for the second. The first is the more potent here.
